Experimental findings from patent publication US10047051B2, “Substituted pyridines and method of use” (AbbVie S.á{acute over (.)}r.l., priority 2015, dated 2018) are described below.

Format in all cases: cell-based
The target of assay [1] is T1, CFTR-S549N (Homo sapiens, UniProt P13569, S549N).
T1 construct: expressed in transfected cells
Briefly: YFP-halide influx assay for the CFTR-S549N. Details: % Activation: concentration or dose not given beside the values. An excerpt:
(§1) The YFP halide influx assay measured the functionality of the cystic fibrosis Transmembrane Conductance regulator (CFTR) channels. The assay was used to evaluate the capacity of compounds to increase the channel opening of existing mutant CFTR channels in the membrane. It makes use of the observation that the yellow fluorescent protein (YFP) variant YFP H148Q, I152L, F47L has its fluorescence substantially quenched by halide ions like Cl^− and I^− (Galietta, L. J. V., Haggie, P. M., Verkman, A. S., 2001. Green fluorescent protein-based halide indicators with improved chloride and iodide affinities. FEBS Lett. 499, 220-224. doi:10.1016/S0014-5793(01)02561-3).
(§2) For this purpose, HEK293-cells were seeded in 96 well plates. During seeding, the cells were reverse-transfected with plasmid vectors that direct the expression of the CFTR G551D mutant and of the YFP reporter. Cells were incubated at 37° C., 5% CO2 for 24 hours so as to allow for sufficient expression of the CFTR protein.
(§3) The I^−-induced quenching of fluorescence was recorded immediately after injection of I^− for 7 seconds. The capacity of a compound to increase the channel opening was directly correlated with the decrease in fluorescence, and was expressed as (1−(fluorescence after 7 seconds (F)/fluorescence before injection (F0))) and an EC50 was derived from a (1−F/F0) vs compound concentration plot.
(§4) Similar YHA assays were developed for other channel gating defective or channel conductance defective CFTR mutants to determine effect of compound on channel activity. Examples of mutants are G178R, G1349D, S549N, R117H, R334W. This assay is also used for additional class I CFTR mutants, including G542X, W1282X; class II mutants including N1303K, and for class III mutants including S1251N; or wild-type CFTR.

For assay [2], the target named is T2, CFTR ΔF508 mutant (Homo sapiens, UniProt P13569, DEL508-508).
T2 construct: expressed in transfected cells; host or cells: CFBE41o- cells, adenoviral transduction
Description: YFP-halide influx assay for the CFTR-ΔF508 mutation (CFBE41o- cells). As to conditions: forskolin 10.67 μM; for EC50: from (1−F/F0) vs concentration plot. The gist of the method: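 EC50 derived from plotting 1−F/F0 (fluorescence 36 s after iodide injection over pre-injection value) against compound concentration. Cells: CFBE41o- transduced with ΔF508-CFTR and YFP quench reporter, corrected 24 h at 27° C or by a CFTR modulator at 37° C.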

The target of assay [3] is T3, CFTR-R117H (Homo sapiens, UniProt P13569, R117H).
T3 construct: expressed in transfected cells
Briefly: YFP-halide influx assay for the CFTR-R117H.
From the text: as §1, §2, §3, §4

Assay [4] has as its target T4, CFTR-G1349D (Homo sapiens, UniProt P13569, G1349D).
T4 construct: expressed in transfected cells
Briefly: YFP-halide influx assay for the CFTR-G1349D.
From the text: as §1, §2, §3, §4

For assay [5], the target named is T5, CFTR-G178R (Homo sapiens, UniProt P13569, G178R).
T5 construct: expressed in transfected cells
Description: YFP-halide influx assay for the CFTR-G178R.
From the text: as §1, §2, §3, §4

Assay [6] concerns the target T6, CFTR G551D mutant (Homo sapiens, UniProt P13569, G551D).
T6 construct: expressed in transfected cells; host or cells: HEK293 cells, reverse transfection with plasmids
Briefly: YFP-halide influx assay for the CFTR-G551D mutation (HEK293 cells). The settings on record: forskolin 10.67 μM. The method, boiled down: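 Channel opening read as I⁻-driven quenching of a YFP H148Q/I152L/F47L reporter over 7 s post-injection, expressed as 1−F/F0 and fitted against concentration for EC50. Cells were HEK293 co-transfected at seeding with G551D CFTR plus reporter, then grown 24 h at 37 °C, 5% CO2.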

Some results are limits rather than exact numbers.

T2 sequence (P13569 with tags, fused parts or gaps DEL508-508): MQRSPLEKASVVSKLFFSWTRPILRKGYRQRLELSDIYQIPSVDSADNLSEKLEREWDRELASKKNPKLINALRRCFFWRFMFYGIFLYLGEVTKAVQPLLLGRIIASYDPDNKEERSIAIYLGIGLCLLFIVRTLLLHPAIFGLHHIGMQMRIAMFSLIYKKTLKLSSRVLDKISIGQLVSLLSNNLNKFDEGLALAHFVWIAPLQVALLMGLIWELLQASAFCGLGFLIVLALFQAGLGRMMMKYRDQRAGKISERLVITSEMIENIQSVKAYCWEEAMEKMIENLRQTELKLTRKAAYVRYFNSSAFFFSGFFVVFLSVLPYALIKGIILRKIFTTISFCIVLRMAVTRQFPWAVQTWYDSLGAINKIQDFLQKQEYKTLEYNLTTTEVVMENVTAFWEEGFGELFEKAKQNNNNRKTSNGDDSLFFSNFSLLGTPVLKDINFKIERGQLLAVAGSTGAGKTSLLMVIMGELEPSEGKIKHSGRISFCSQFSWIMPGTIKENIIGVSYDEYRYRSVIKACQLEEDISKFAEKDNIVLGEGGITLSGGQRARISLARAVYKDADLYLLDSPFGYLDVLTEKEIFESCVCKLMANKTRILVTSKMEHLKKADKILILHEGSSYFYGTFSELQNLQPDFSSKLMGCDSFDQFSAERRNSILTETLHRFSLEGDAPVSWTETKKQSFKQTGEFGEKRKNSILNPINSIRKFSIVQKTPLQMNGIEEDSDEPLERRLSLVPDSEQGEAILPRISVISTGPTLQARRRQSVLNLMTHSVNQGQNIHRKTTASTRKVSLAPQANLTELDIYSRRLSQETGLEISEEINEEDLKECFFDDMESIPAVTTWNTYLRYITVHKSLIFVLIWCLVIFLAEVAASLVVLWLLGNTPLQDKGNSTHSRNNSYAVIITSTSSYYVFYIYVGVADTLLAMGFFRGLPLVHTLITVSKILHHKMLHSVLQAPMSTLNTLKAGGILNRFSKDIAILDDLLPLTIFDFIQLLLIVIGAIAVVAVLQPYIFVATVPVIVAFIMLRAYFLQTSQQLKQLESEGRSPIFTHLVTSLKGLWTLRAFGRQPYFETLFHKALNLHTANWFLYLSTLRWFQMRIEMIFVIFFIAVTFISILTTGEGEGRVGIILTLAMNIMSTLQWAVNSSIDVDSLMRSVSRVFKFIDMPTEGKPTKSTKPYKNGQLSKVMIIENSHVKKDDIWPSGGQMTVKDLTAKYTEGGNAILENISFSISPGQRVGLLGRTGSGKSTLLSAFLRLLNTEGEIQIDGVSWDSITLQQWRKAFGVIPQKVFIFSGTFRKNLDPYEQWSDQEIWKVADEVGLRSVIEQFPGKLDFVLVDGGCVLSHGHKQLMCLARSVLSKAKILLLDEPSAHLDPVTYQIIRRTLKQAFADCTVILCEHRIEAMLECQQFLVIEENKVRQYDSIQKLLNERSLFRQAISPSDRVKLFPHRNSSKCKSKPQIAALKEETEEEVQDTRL
T1 sequence (P13569 whole entry S549N): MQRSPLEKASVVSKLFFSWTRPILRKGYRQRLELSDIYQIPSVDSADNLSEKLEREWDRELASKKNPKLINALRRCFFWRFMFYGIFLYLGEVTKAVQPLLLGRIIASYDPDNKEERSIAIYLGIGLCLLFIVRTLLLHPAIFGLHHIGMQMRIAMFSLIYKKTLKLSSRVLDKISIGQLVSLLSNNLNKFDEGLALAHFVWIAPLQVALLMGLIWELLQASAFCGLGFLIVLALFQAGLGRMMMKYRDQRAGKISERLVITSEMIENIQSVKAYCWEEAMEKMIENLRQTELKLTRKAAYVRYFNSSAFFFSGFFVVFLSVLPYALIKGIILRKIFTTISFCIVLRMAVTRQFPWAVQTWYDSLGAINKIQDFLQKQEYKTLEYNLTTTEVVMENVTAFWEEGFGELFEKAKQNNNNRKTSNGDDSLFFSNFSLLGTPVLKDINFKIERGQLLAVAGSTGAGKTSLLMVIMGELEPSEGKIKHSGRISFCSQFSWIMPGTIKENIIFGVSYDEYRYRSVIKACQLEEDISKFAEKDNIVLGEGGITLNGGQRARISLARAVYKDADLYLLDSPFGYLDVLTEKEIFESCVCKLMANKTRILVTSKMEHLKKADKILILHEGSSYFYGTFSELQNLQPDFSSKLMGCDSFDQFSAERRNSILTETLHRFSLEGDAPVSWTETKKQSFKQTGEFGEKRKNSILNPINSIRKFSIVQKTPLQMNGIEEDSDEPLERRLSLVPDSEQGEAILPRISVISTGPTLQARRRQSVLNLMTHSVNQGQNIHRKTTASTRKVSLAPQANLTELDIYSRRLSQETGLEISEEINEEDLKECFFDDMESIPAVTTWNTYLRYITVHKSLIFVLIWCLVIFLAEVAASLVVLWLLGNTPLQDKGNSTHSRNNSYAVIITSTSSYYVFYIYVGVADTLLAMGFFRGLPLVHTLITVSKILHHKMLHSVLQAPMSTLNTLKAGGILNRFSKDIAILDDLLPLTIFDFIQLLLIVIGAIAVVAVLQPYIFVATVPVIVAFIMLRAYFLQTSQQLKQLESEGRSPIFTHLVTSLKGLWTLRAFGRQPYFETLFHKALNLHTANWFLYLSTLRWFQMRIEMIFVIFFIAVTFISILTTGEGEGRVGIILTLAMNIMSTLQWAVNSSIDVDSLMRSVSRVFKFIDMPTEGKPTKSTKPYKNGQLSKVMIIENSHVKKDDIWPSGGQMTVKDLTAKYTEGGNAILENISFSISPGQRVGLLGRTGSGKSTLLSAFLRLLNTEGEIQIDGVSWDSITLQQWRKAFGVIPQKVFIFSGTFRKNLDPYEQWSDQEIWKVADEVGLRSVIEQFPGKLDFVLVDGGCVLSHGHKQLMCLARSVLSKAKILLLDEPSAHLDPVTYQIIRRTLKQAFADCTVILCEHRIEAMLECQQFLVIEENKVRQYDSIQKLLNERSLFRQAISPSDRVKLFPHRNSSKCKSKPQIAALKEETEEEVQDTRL
T4 sequence (P13569 whole entry G1349D): as the sequence (P13569 whole entry S549N) above, with N549S, G1349D counted along it
T6 sequence (P13569 whole entry G551D): as the sequence (P13569 whole entry S549N) above, with N549S, G551D counted along it
T5 sequence (P13569 whole entry G178R): as the sequence (P13569 whole entry S549N) above, with G178R, N549S counted along it
T3 sequence (P13569 whole entry R117H): as the sequence (P13569 whole entry S549N) above, with R117H, N549S counted along it

As to `CC(C)(C)C(O)CNC(=O)c1ncc(S(=O)(=O)c2ccc(OC(F)(F)F)cc2)cc1N` (stereo not drawn) [Compound 16, 3-amino-N-(2-hydroxy-3,3-dimethylbutyl)-5-{[4-(trifluoromethoxy)phenyl]sulfonyl}pyridine-2-carboxamide], the “% Activation” value in assay [1] came out at 114.0%; in assay [2], 106.5%; in assay [3] it was 112.0%; in assay [4] it was 99.6%; in assay [5], 102.0%; in assay [6], 96.2%. Moreover, the half-maximal effective concentration (EC50) (commonly the concentration giving half of the maximal effect) in assay [1] is greater than 3330 nM; in assay [2], 15.7 nM; in assay [3] it was 431 nM; in assay [4], 698 nM; in assay [5], 1010 nM; in assay [6] it was 1670 nM.

Regarding `COC[C@H](O)CNC(=O)c1ncc(S(=O)(=O)c2ccccc2OC(F)(F)F)cc1N` [Compound 177, 3-amino-N-[(2R)-2-hydroxy-3-methoxypropyl]-5-{[2-(trifluoromethoxy)phenyl]sulfonyl}pyridine-2-carboxamide], the “% Activation” value was found to be 104.0% in assay [1]; 102.1% in assay [2]; 103.7% in assay [3]; 96.0% in assay [4]; 104.0% in assay [5]; 91.4% in assay [6]. The EC50 in assay [1] stood at 80.4 nM; in assay [2] it was 3.6 nM; in assay [3] it was 253 nM; in assay [4], 97.9 nM; in assay [5], 77.8 nM; in assay [6], 430 nM.

With `Nc1cc(S(=O)(=O)c2ccc(OC(F)(F)F)cc2)cnc1C(=O)N1CC(O)(C2CC2)C1` [Compound 86, (3-amino-5-{[4-(trifluoromethoxy)phenyl]sulfonyl}pyridin-2-yl)(3-cyclopropyl-3-hydroxyazetidin-1-yl)methanone], the “% Activation” value stood at 98.52% in assay [1]; 122.0% in assay [2]; 89.91% in assay [3]; 85.79% in assay [4]; 78.08% in assay [5]; 69.3% in assay [6]. Further, the concentration for a half-maximal effect (EC50) in assay [1] was found to be 139 nM; in assay [2] it was 3.1 nM; in assay [3], 59.5 nM; in assay [4], 55.3 nM; in assay [5], 32.5 nM; in assay [6], 332 nM.

Consider `Nc1cc(S(=O)(=O)c2ccc(OC(F)(F)F)cc2)cnc1C(=O)N1CC(O)(C(F)(F)F)C1` [Compound 79, (3-amino-5-{[4-(trifluoromethoxy)phenyl]sulfonyl}pyridin-2-yl)[3-hydroxy-3-(trifluoromethyl)azetidin-1-yl]methanone], for which the “% Activation” value amounted to 88.09% in assay [1]; 99.5% in assay [2]; 103.1% in assay [3]; 83.08% in assay [4]; 74.5% in assay [5]; 48.9% in assay [6]. Besides, the 50% effective concentration (EC50) in assay [1] is 44.3 nM; in assay [2], 3.3 nM; in assay [3] it was 22.2 nM; in assay [4], 61.4 nM; in assay [5], 31.3 nM; in assay [6], 256 nM.

Turning to `Nc1cc(S(=O)(=O)c2ccc(C(F)(F)F)cc2)cnc1C(=O)NCCO` [Compound 217, 3-amino-N-(2-hydroxyethyl)-5-{[4-(trifluoromethyl)phenyl]sulfonyl}pyridine-2-carboxamide], the “% Activation” value turned out to be 55.9% in assay [1]; 103.4% in assay [2]; 92.1% in assay [3]; 62.9% in assay [4]; 63.9% in assay [5]; 51.8% in assay [6]. Also, the 50% effective concentration (EC50) was determined as 401 nM in assay [1]; 36 nM in assay [2]; 765 nM in assay [3]; 1350 nM in assay [4]; 933 nM in assay [5]; 3030 nM in assay [6].

For the molecule `Nc1cc(S(=O)(=O)c2ccc(OC(F)(F)F)cc2)cnc1C(=O)N[C@@H]1COCC[C@@H]1O` (racemic) [Compound 33, rac-3-amino-N-[(3R,4S)-4-hydroxytetrahydro-2H-pyran-3-yl]-5-{[4-(trifluoromethoxy)phenyl]sulfonyl}pyridine-2-carboxamide], the “% Activation” value in assay [1] amounted to 82.2%; in assay [2], 98.6%; in assay [3], 87.1%; in assay [4], 92.9%; in assay [5] it was 81.8%; in assay [6], 62.3%. For the same molecule, the EC50 in assay [1] amounted to 735 nM; in assay [2] it was 42.8 nM; in assay [3] it was 628 nM; in assay [4], 543 nM; in assay [5] it was 514 nM; in assay [6], 1390 nM.

Regarding `Nc1cc(S(=O)(=O)c2ccc(F)cc2)cnc1C(=O)N1CC(O)(C(F)(F)F)C1` [Compound 176, {3-amino-5-[(4-fluorophenyl)sulfonyl]pyridin-2-yl}[3-hydroxy-3-(trifluoromethyl)azetidin-1-yl]methanone], the “% Activation” value worked out at 92.0% in assay [1]; 93.4% in assay [2]; 111.0% in assay [3]; 72.8% in assay [4]; 79.1% in assay [5]; 46.0% in assay [6]. Moreover, the EC50 in assay [1] was 25.7 nM; in assay [2], 1 nM; in assay [3], 22.7 nM; in assay [4] it was 29.5 nM; in assay [5], 12.7 nM; in assay [6], 69.4 nM.

For `COCC(O)CNC(=O)c1ncc(S(=O)(=O)c2ccccc2OC(F)(F)F)cc1N` (stereo not drawn) [Compound 80, 3-amino-N-(2-hydroxy-3-methoxypropyl)-5-{[2-(trifluoromethoxy)phenyl]sulfonyl}pyridine-2-carboxamide], the “% Activation” value came out at 108.5% in assay [1]; 102.0% in assay [2]; 111.5% in assay [3]; 98.43% in assay [4]; 95.08% in assay [5]; 95.1% in assay [6]. Further, the EC50 in assay [1] was 144 nM; in assay [2], 3.2 nM; in assay [3], 408 nM; in assay [4], 119 nM; in assay [5], 81.1 nM; in assay [6], 946 nM.

For the molecule `Nc1cc(S(=O)(=O)c2ccccc2OC(F)(F)F)cnc1C(=O)N1CC(F)(F)C1` [Compound 78, (3-amino-5-{[2-(trifluoromethoxy)phenyl]sulfonyl}pyridin-2-yl)(3,3-difluoroazetidin-1-yl)methanone], the “% Activation” value in assay [1] stood at 80.37%; in assay [2], 123.0%; in assay [3], 89.74%; in assay [4], 85.36%; in assay [5], 73%; in assay [6], 55.9%. Also, the concentration giving a half-maximal response (EC50) came out at 116 nM in assay [1]; 2.2 nM in assay [2]; 59.5 nM in assay [3]; 52.3 nM in assay [4]; 58.1 nM in assay [5]; 609 nM in assay [6].
